Data set [1] in a line: Storage stability of LNPs (time-dependent DLS, DiO/DiI FRET). It counts as physicochemical. The note with it: DiO and DiI encapsulated LNPs, 7 days of storage. As to the method:
The morphologies of LNPs were further studied by the transmission electron microscopy (TEM). […] Subsequently, the stability of LNPs thus prepared was examined by DLS and fluorescence measurements.
The cell (HeLa and HeLa-DsRed cell lines) internalization studies were conducted using small molecular hydrophobic (nile red) and hydrophilic (calcein) fluorescent dyes and macromolecular fluorescent recombinant protein ((−30)GFP-Cre) loaded OCholB LNPs. The stabilities of cargo-loaded LNPs were examined at first using time-dependent DLS and fluorescence measurements.

A further data set deals with GFP-HEK cells. Put plainly: Cas9 mRNA and sgRNA delivery, GFP knockout (GFP− cells). It counts as cell-based. The note with it: Cas9 mRNA and sgRNA 1/1; lipidoid/mRNA=10/1; [mRNA]=0.86 μg mL^−1; 48 h. As to the method: Next, the possibility of using OCholB LNPs to deliver mRNA for genome editing (Cre-loxP and CRISPR/Cas9 systems) purposes was examined. First, Cre mRNA was complexed with OCholB LNPs and tested against HeLa-DsRed cells. The HeLa-DsRed cells express red fluorescent protein, DsRed, only upon Cre protein-mediated recombination. After 24 h of incubation with mRNA/LNPs (lipidoid/mRNA=10/1; [mRNA]=0.86 μg mL^−1), the DsRed^+ cell portions were determined by flow cytometry. […] Then the Cas9 mRNA that expresses a version of Streptococcus pyogenes SF370 Cas9 protein with an N and C terminal nuclear localization signal (NLS) were loaded into LNPs, along with single-guide RNA (sgRNA) that targets a sequence on GFP gene. GFP-HEK cells which steadily express GFP proteins were used a cell model in this case. GFP-cells, indicating a successful Cas9-mediated knockdown of GFP expression, were analyzed using flow cytometry. […] This was also found to be applicable to protein delivery in our previous studies.
In this context, two strategies were tested, i.e., synthesizing new OCholB-tailed lipidoids with single tail rather than full substitution, and adding helper lipids (phospholipids) into fully substituted OCholB LNPs. Single-tailed lipidoids, 75-OCholB-1, 76-OCholB-1 and […] at first following similar protocols as described before and characterized by ESI-MS ([75-OCholB-1+H]^+, 736.55; [76-OCholB-1+H]^+, 734.64; [77-OCholB-1+H]^+, 748.73). Nanoparticles were than fabricated using the same sonication/vortex procedures and the obtained LNPs were measured by DLS (75-OCholB-1, <Dh>=302.6 nm, μ2/I^2=0.30; 76-OCholB-1, <Dh>=294.5 nm, μ2/I^2=0.30; 77-OCholB-1, <Dh>=254.2 nm, μ2/I^2=0.33). […] 69.4%, 72.5% and 68.9% of GFP^+ cells were determined for mRNA/75-OCholB-1, mRNA/76-OCholB-1 and mRNA/77-OCholB-1 treated HeLa cells, respectively. Cre mRNA could also be efficiently delivered into HeLa-DsRed cells, as 87.3% (mRNA/75-OCholB-1), 82.8% (mRNA/76-OCholB-1) and 81.5% (mRNA/77-OCholB-1) of cells were determined to be DsRed^+ after 24 h of exposure (FIG. 14G). […]

The next data set has as its system HeLa cells. Description: Internalization of Nile red loaded nanoparticles (NR+ cells). It counts as cell-based. The note with it: 4 h of exposure.

Regarding `CCN(CC)CCN(CCC(=O)OCCSSCCNC(=O)OC1CCC2(C)C(=CCC3C2CCC2(C)C(C(C)CCCC(C)C)CCC32)C1)CCC(=O)OCCSSCCNC(=O)OC1CCC2(C)C(=CCC3C2CCC2(C)C(C(C)CCCC(C)C)CCC32)C1` (stereo not drawn) [Lipidoid 75-OCholB], the “FRET ratio (I575/I575+I505) variations” value in data set [1] is “negligible variations”. For the same molecule, the “GFP^− cells” value with GFP-HEK cells is 6.1%. Further, the “NR^+ cells” value with HeLa cells came out at 85.2%.
`CC(C)CCCC(C)C1CCC2C3CC=C4CC(OC(=O)NCCSSCCOC(=O)CCN(CCC(=O)OCCSSCCNC(=O)OC5CCC6(C)C(=CCC7C6CCC6(C)C(C(C)CCCC(C)C)CCC76)C5)CCC5CCCN5C)CCC4(C)C3CCC12C` (stereo not drawn) [Lipidoid 77-OCholB]: the “FRET ratio (I575/I575+I505) variations” value in data set [1] is recorded as “negligible variations”. In addition, the “GFP^− cells” value in the data set with GFP-HEK cells stood at 4.4%. Further, the “NR^+ cells” value in the data set with HeLa cells is 90.3%.
Take `CC(C)CCCC(C)C1CCC2C3CC=C4CC(OC(=O)NCCSSCCOC(=O)CCN(CCC(=O)OCCSSCCNC(=O)OC5CCC6(C)C(=CCC7C6CCC6(C)C(C(C)CCCC(C)C)CCC76)C5)CCN5CCCC5)CCC4(C)C3CCC12C` (stereo not drawn) [Lipidoid 76-OCholB]: in data set [1], the “FRET ratio (I575/I575+I505) variations” value is on record as “negligible variations”. Besides, the “GFP^− cells” value in the data set on GFP-HEK cells came to 7.7%. Moreover, the “NR^+ cells” value with HeLa cells worked out at 65.0%.

These data come from patent publication US12133855B2, “Lipid-like nanocomplexes and uses thereof” (Trustees of Tufts College, priority 2018, dated 2024).
